US9963462B2 (priority 2015, dated 2018)

tested on: BH4 levels in SK-N-BE (2) cells; test: SKN-N-BE (2) cellular assay, BH4 levels by LC-MS; assay type: cell-based; conditions: Homo sapiens, SKNBE2, read-out: SK-N-BE(2) IC50, SK-N-BE (2) cells, BH4 levels by LC-MS

| SMILES | IC50 [nM] |
| --- | --- |
| Cc1c(C(=O)N2CCn3ccnc3C2)cnn1-c1nn2cccc2c(=O)[nH]1 [Q-0866] | 6700 |
| Cc1c(C(=O)N2CCn3c(nnc3C3CC3)C2)cnn1-c1nn2cccc2c(=O)[nH]1 [Q-0868] | 10000 |
| Cc1c(C(=O)N2C3CCC2CN(c2ccc(C#N)cc2)C3)cnn1-c1nn2cccc2c(=O)[nH]1 [Q-0869] | 100 |
| Cc1c(C(=O)N2C3CCC2CN(c2ccc(C(F)(F)F)cc2)C3)cnn1-c1nn2cccc2c(=O)[nH]1 [Q-0870] | 300 |
| Cc1c(C(=O)N2CCn3cc(C(F)(F)F)nc3C2)cnn1-c1nn2cccc2c(=O)[nH]1 [Q-0871] | 4000 |
| Cc1c(C(=O)N2CCN3C(=O)CC[C@H]3C2)cnn1-c1nn2cccc2c(=O)[nH]1 [Q-0872] | 10000 |
| Cc1c(C(=O)N2CCn3cncc3C2)cnn1-c1nn2cccc2c(=O)[nH]1 [Q-0873] | 10000 |
| Cc1c(C(=O)N2CC3CC(C#N)CC3C2)cnn1-c1nn2cccc2c(=O)[nH]1 (stereo not shown) [Q-0874] | 1100 |
| Cc1c(C(=O)N2C3CCC2CN(c2ccccc2)C3)cnn1-c1nn2cccc2c(=O)[nH]1 [Q-0875] | 76 |
| Cc1c(C(=O)N2C3CCC2CN(c2cccc(F)c2)C3)cnn1-c1nn2cccc2c(=O)[nH]1 [Q-0876] | 88 |
| Cc1c(C(=O)N2C3CCC2CN(c2ccc(C#N)cn2)C3)cnn1-c1nn2cccc2c(=O)[nH]1 [Q-0877] | 200 |
| Cc1c(C(=O)N2CC3CCN(C(=O)OC(C)(C)C)C3C2)cnn1-c1nn2cccc2c(=O)[nH]1 (stereo not shown) [Q-0878] | 800 |
| Cc1c(C(=O)N2CC3CC(C(N)=O)CC3C2)cnn1-c1nn2cccc2c(=O)[nH]1 (stereo not shown) [Q-0879] | 10000 |
| Cc1c(C(=O)N2C3CCC2CN(c2ccc(F)cc2)C3)cnn1-c1nn2cccc2c(=O)[nH]1 [Q-0880] | 87 |
| Cc1c(C(=O)N2CCN3CCC[C@@]3(C)C2)cnn1-c1nn2cccc2c(=O)[nH]1 [Q-0881] | 2300 |
| Cc1c(C(=O)N2C3CCC2CN(c2ccccn2)C3)cnn1-c1nn2cccc2c(=O)[nH]1 [Q-0882] | 200 |
| Cc1c(C(=O)N2CCC(C#N)CC2)cnn1-c1nn2cccc2c(=O)[nH]1 [Q-0883] | 1300 |
| CCN1CC2CCC(C1)N2C(=O)c1cnn(-c2nn3cccc3c(=O)[nH]2)c1C [Q-0884] | 200 |
| Cc1c(C(=O)N2CCN(C(=O)OC(C)(C)C)CC2C)cnn1-c1nn2cccc2c(=O)[nH]1 (stereo not shown) [Q-0885] | 400 |
| Cc1c(C(=O)N2CCC(N3CCCC3)CC2)cnn1-c1nn2cccc2c(=O)[nH]1 [Q-0886] | 5400 |
| Cc1c(C(=O)N2CCC(OCc3ccc(F)cc3)CC2)cnn1-c1nn2cccc2c(=O)[nH]1 [Q-0893] | 300 |
| Cc1c(C(=O)N2C3CCC2CN(c2ccc(Cl)cc2)C3)cnn1-c1nn2cccc2c(=O)[nH]1 [Q-0894] | 100 |
| Cc1c(C(=O)N2CCN(CCC#N)CC2)cnn1-c1nn2cccc2c(=O)[nH]1 [Q-0895] | 1400 |
| Cc1c(C(=O)N2CC[C@@H]3CN(C(=O)OC(C)(C)C)C[C@@H]32)cnn1-c1nn2cccc2c(=O)[nH]1 [Q-0897] | 500 |
| Cc1c(C(=O)N2CCC23CC(F)(F)C3)cnn1-c1nn2cccc2c(=O)[nH]1 [Q-0900] | 2300 |
| Cc1c(C(=O)N2CCN(CCS(C)(=O)=O)CC2)cnn1-c1nn2cccc2c(=O)[nH]1 [Q-0901] | 10000 |
| Cc1c(C(=O)N2CC3CC(C(F)(F)F)CC3C2)cnn1-c1nn2cccc2c(=O)[nH]1 (stereo not shown) [Q-0902] | 100 |

| SMILES | IC50 [nM] |
| --- | --- |
| Cc1c(C(=O)N2CCC3(CC2)CC3c2nnc(-c3cccc(F)c3)o2)cnn1-c1nn2cccc2c(=O)[nH]1 (stereo not shown) [Q-0905] | 600 |
| Cc1c(C(=O)N2CCN(c3nccs3)CC2)cnn1-c1nn2cccc2c(=O)[nH]1 [Q-0907] | 400 |
| Cc1c(C(=O)N2CCC3(CC2)OCc2ccccc23)cnn1-c1nn2cccc2c(=O)[nH]1 [Q-0909] | 100 |
| Cc1c(C(=O)N2CCCC3C2CCCN3C(=O)OC(C)(C)C)cnn1-c1nn2cccc2c(=O)[nH]1 (stereo not shown) [Q-0912] | 900 |
| Cc1c(C(=O)N2CCC3CN(C(=O)OC(C)(C)C)CC32)cnn1-c1nn2cccc2c(=O)[nH]1 (stereo not shown) [Q-0914] | 600 |
| Cc1c(C(=O)N2CCN(C(=O)OC(C)(C)C)CC2(C)C)cnn1-c1nn2cccc2c(=O)[nH]1 [Q-0916] | 700 |
| Cc1c(C(=O)N2CCC(n3cncn3)CC2)cnn1-c1nn2cccc2c(=O)[nH]1 [Q-0919] | 1700 |
| Cc1c(C(=O)N2CCCCC2C(F)(F)F)cnn1-c1nn2cccc2c(=O)[nH]1 (stereo not shown) [Q-0920] | 500 |
| Cc1c(C(=O)N2CCC3(CCOC3)C2)cnn1-c1nn2cccc2c(=O)[nH]1 (stereo not shown) [Q-0922] | 1000 |
| Cc1c(C(=O)N2CCCC(C)(C#N)C2)cnn1-c1nn2cccc2c(=O)[nH]1 (stereo not shown) [Q-0923] | 1300 |
| CCN(C)C1CCN(C(=O)c2cnn(-c3nn4cccc4c(=O)[nH]3)c2C)CC1 [Q-0925] | 500 |
| Cc1c(C(=O)N2CC3(CCN(C(=O)OC(C)(C)C)CC3)C2)cnn1-c1nc2c(c(=O)[nH]1)CCC2 [Q-0928] | 200 |
| Cc1c(C(=O)N2CC[C@H]3CN(C(=O)OC(C)(C)C)[C@H]3C2)cnn1-c1nn2cccc2c(=O)[nH]1 [Q-0929] | 2000 |
| Cc1c(C(=O)N2CC3(CCCC3)C2)cnn1-c1nc2c(c(=O)[nH]1)CCC2 [Q-0931] | 200 |
| Cc1c(C(=O)N2CCC3(CC2)CC3c2noc(-c3cccnc3)n2)cnn1-c1nn2cccc2c(=O)[nH]1 (stereo not shown) [Q-0932] | 700 |
| Cc1c(C(=O)N2CCN(C3CC4CCC3C4)CC2)cnn1-c1nn2cccc2c(=O)[nH]1 (stereo not shown) [Q-0933] | 200 |
| Cc1c(C(=O)N2CC3CCCC(C3)C2)cnn1-c1nn2cccc2c(=O)[nH]1 [Q-0934] | 300 |
| Cc1c(C(=O)N2CCC(N3CCCC3=O)CC2)cnn1-c1nn2cccc2c(=O)[nH]1 [Q-0935] | 1600 |
| Cc1c(C(=O)N2CCN(c3nc4ccccc4s3)CC2)cnn1-c1nn2cccc2c(=O)[nH]1 [Q-0936] | 200 |
| COC1(C2CC2)CCN(C(=O)c2cnn(-c3nn4cccc4c(=O)[nH]3)c2C)CC1 [Q-0938] | 100 |
| Cc1c(C(=O)N2CCC(c3nc(-c4ccccc4)cs3)CC2)cnn1-c1nn2cccc2c(=O)[nH]1 [Q-0939] | 83 |
| Cc1c(C(=O)N2CC(Cc3ccc(C(F)(F)F)cc3)C2)cnn1-c1nn2cccc2c(=O)[nH]1 [Q-0940] | 800 |
| Cc1c(C(=O)N2CCC(n3ccnc3)CC2)cnn1-c1nn2cccc2c(=O)[nH]1 [Q-0942] | 9100 |
| Cc1c(C(=O)N2CC3(CN(CC(F)F)C3)C2)cnn1-c1nn2cccc2c(=O)[nH]1 [Q-0945] | 1000 |
| Cc1c(C(=O)N2CC3CC(C)N(C(=O)C(C)(C)C)C3C2)cnn1-c1nn2cccc2c(=O)[nH]1 (stereo not shown) [Q-0946] | 1100 |
| Cc1c(C(=O)N2CC(CC(F)(F)F)C2)cnn1-c1nn2cccc2c(=O)[nH]1 [Q-0947] | 1000 |
| Cc1c(C(=O)N2CCN(CC(F)(F)F)CC2(C)C)cnn1-c1nn2cccc2c(=O)[nH]1 [Q-0949, 2-(4-(2,2-dimethyl-4-(2,2,2-trifluoroethyl)piperazine-1-carbonyl)-5-methyl-1H-pyrazol-1-yl)pyrrolo[1,2-f][1,2,4]triazin-4(3H)-one] | 200 |

| SMILES | IC50 [nM] |
| --- | --- |
| Cc1c(C(=O)N2CCC(N3CCOCC3)C2)cnn1-c1nn2cccc2c(=O)[nH]1 (stereo not shown) [Q-0950] | 6200 |
| Cc1c(C(=O)N2CCC3CCC(=O)N(C4CC4)C3C2)cnn1-c1nn2cccc2c(=O)[nH]1 (stereo not shown) [Q-0954] | 9000 |
| Cc1c(C(=O)N2CCCC(c3n[nH]c(C4CC4)n3)C2)cnn1-c1nn2cccc2c(=O)[nH]1 (stereo not shown) [Q-0955] | 10000 |
| COCC1(C#N)CCN(C(=O)c2cnn(-c3nn4cccc4c(=O)[nH]3)c2C)CC1 [Q-0957] | 1000 |
| Cc1c(C(=O)N2CCC(c3nncn3C3CC3)CC2)cnn1-c1nn2cccc2c(=O)[nH]1 [Q-0958] | 10000 |
| Cc1c(C(=O)N2CCC(C(F)(F)F)C2(C)C)cnn1-c1nn2cccc2c(=O)[nH]1 (stereo not shown) [Q-0959] | 1000 |
| Cc1c(C(=O)N2CCC(C(F)(F)F)C3(CCC3)C2)cnn1-c1nn2cccc2c(=O)[nH]1 (stereo not shown) [Q-0960] | 200 |
| Cc1c(C(=O)N2C[C@@H]3[C@@H](CF)[C@@H]3C2)cnn1-c1nn2cccc2c(=O)[nH]1 [Q-0961] | 700 |
| Cc1c(C(=O)N2CCC(F)(c3ccccn3)CC2)cnn1-c1nn2cccc2c(=O)[nH]1 [Q-0962] | 300 |
| Cc1c(C(=O)N2CCN(C(C#N)c3ccc(F)cc3)CC2)cnn1-c1nn2cccc2c(=O)[nH]1 (stereo not shown) [Q-0963] | 4000 |
| Cc1c(C(=O)N2CCN(C(C#N)c3cccs3)CC2)cnn1-c1nn2cccc2c(=O)[nH]1 (stereo not shown) [Q-0964] | 8900 |
| Cc1c(C(=O)N2CC3CCC2c2ccccc23)cnn1-c1nn2cccc2c(=O)[nH]1 (stereo not shown) [Q-0965] | 100 |
| Cc1c(C(=O)N2CCC(CC(F)(F)F)C2)cnn1-c1nn2cccc2c(=O)[nH]1 (stereo not shown) [Q-0966] | 1300 |
| Cc1c(C(=O)N2CC(C(F)(F)F)CC(C(F)(F)F)C2)cnn1-c1nn2cccc2c(=O)[nH]1 (stereo not shown) [Q-0967] | 1900 |
| Cc1c(C(=O)N2[C@H](C)CN(C(=O)OC(C)(C)C)C[C@@H]2C)cnn1-c1nn2cccc2c(=O)[nH]1 [Q-0968] | 400 |
| Cc1c(C(=O)N2C3CCC2CC(N(C)C(=O)c2ccccc2)C3)cnn1-c1nn2cccc2c(=O)[nH]1 (stereo not shown) [Q-0970] | 400 |
| Cc1c(C(=O)N2C[C@@H]3CCS(=O)(=O)[C@@H]3C2)cnn1-c1nn2cccc2c(=O)[nH]1 [Q-0971] | 7200 |
| Cc1ccc(OC2CC3CCC(C2)N3C(=O)c2cnn(-c3nn4cccc4c(=O)[nH]3)c2C)cc1 (stereo not shown) [Q-0974] | 100 |
| Cc1c(C(=O)N2CCN(c3nnc(C(F)(F)F)s3)CC2)cnn1-c1nn2cccc2c(=O)[nH]1 [Q-0975] | 1300 |
| COC1CCN(C(=O)c2cnn(-c3nn4cccc4c(=O)[nH]3)c2C)CC1 [Q-0976] | 1100 |
| Cc1c(C(=O)N2CC(OCC(F)F)C2)cnn1-c1nn2cccc2c(=O)[nH]1 [Q-0979] | 1400 |
| Cc1c(C(=O)N2CCN(CC(F)(F)F)C(=O)C2)cnn1-c1nn2cccc2c(=O)[nH]1 [Q-0980] | 1300 |
| Cc1c(C(=O)N2CC(N3CC(F)C3)C2)cnn1-c1nn2cccc2c(=O)[nH]1 [Q-0981] | 1400 |
| Cc1c(C(=O)N2CCN(C(C#N)C(C)C)CC2)cnn1-c1nn2cccc2c(=O)[nH]1 (stereo not shown) [Q-0982] | 10000 |
| Cc1c(C(=O)N2CCC(c3nnc4n3CCC4)CC2)cnn1-c1nn2cccc2c(=O)[nH]1 [Q-0983] | 10000 |
